Data taken from patent publication US10894775B2, “Piperidine derivatives as liver X receptor beta agonists, compositions, and their use” (Merck Sharp & Dohme Corp., priority 2016, dated 2021).
Read-outs that look alike come from different tables or passages of the source.

Tests used:
[1] = target: T1, glutathione-S-transferase (GST) tagged LXRbeta LBD (ligand binding domain) (Homo sapiens, UniProt P55055); assay: LanthaScreen TR-FRET Liver X Receptor Coactivator Assay, LXR beta; assay type: biochemical; conditions: for Emax: read-out: LXR beta actiivty at max dose (%); for EC50: potency (Inflection Point) of compound-induced co-activator recruitment, TR-FRET
T1 construct: purchased Invitrogen pv4658.pps
T1 sequence (P55055 222-460 limits assumed): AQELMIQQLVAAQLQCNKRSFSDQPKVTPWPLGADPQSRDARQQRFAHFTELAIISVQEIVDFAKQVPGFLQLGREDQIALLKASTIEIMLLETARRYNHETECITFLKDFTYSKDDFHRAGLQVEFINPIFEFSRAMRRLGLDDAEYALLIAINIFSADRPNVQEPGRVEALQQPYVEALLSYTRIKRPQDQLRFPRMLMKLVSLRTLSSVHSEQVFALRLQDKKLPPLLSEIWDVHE
Protocol: (§1) While running the LanthaScreen™ TR-FRET Liver X Receptor Coactivator Assay, LXR alpha-LBD or LXR beta-LBD was added to ligand test compounds followed by addition of a mixture of a fluorescein-labelled coactivator peptide and terbium-conjugated anti-GST antibody. After an incubation period at room temperature, TR-FRET (time-resolved fluorescence resonance energy transfer) was measured using a filter-based instrument capable of TR-FRET, e.g. PerkinElmer Envision.

[2] = target: T2, glutathione-S-transferase (GST) tagged LXRalpha LBD (ligand binding domain) (Homo sapiens, UniProt Q13133); assay: LanthaScreen TR-FRET Liver X Receptor Coactivator Assay, LXR alpha; assay type: biochemical; conditions: for Emax: read-out: LXR alpha actiivty at max dose (%); for EC50 / LXR alpha IP (nM): potency (Inflection Point) of compound-induced co-activator recruitment, TR-FRET; for EC50: read-out: LXR alpha IP
T2 construct: purchased Invitrogen pv4655
T2 sequence (Q13133 209-447 limits assumed): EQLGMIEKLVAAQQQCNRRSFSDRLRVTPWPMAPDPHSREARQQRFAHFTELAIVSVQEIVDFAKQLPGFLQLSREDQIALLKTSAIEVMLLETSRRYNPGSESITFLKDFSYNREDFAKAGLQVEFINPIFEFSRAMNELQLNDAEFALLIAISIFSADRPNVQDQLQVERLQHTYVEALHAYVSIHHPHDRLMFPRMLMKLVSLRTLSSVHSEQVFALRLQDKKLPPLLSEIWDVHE
Protocol: as §1

[3] = efficacy (Emax) in relation to reference dual agonist T0901317

Row | Structure (SMILES) | Emax [1, 3] [%] | EC50 ([1]; read-out: LXR beta IP) [nM] | Emax [2, 3] [%] | EC50 [2] [nM] | LXR alpha IP (nM) [2] | EC50 ([1]; LXR beta IP (nM)) [nM] | Emax [1] [%] | Emax [2] [%]
1 | CN(C)C(=O)c1ccc(NCCC[C@@H]2CC23CCN(C(=O)[C@](O)(c2ccccc2)C(F)(F)F)CC3)cc1Cl (single isomer, unassigned) [Example 6-1, 2-chloro-N,N-dimethyl-4-(3-((R or S)-6-((R or S)-3,3,3-trifluoro-2-hydroxy-2-phenylpropanoyl)-6-azaspiro[2.5]octan-1-yl)propylamino)benzamide] | 30 | 15 | 21 | 828 | – | – | – | –
2 | CN(C)C(=O)c1ccc(NCCC[C@H]2CC23CCN(C(=O)[C@](O)(c2ccccc2)C(F)(F)F)CC3)cc1Cl (single isomer, unassigned) [Example 6-2, 2-chloro-N,N-dimethyl-4-(3-((S or R)-6-((R or S)-3,3,3-trifluoro-2-hydroxy-2-phenylpropanoyl)-6-azaspiro[2.5]octan-1-yl)propylamino)benzamide] | 56 | 8 | 11 | 472 | – | – | – | –
3 | CN(C)C(=O)c1ccc(NCCC[C@H]2CC23CCN(C(=O)[C@](O)(c2ccccc2)C(F)(F)F)CC3)nc1Cl (single isomer, unassigned) [Example 6-3, 2-chloro-N,N-dimethyl-6-(3-((S or R)-6-((R or S)-3,3,3-trifluoro-2-hydroxy-2-phenylpropanoyl)-6-azaspiro[2.5]octan-1-yl)propylamino)nicotin-amide] | 49 | 14 | 24 | 1400 | – | – | – | –
4 | O=C(c1ccc(NCCC[C@@H]2CC23CCN(C(=O)[C@](O)(c2ccccc2)C(F)(F)F)CC3)cc1Cl)N1CCCC1 (single isomer, unassigned) [Example 6-4, (R or S)-1-((R or S)-1-(3-(3-chloro-4-(pyrrolidine-1-carbonyl)phenylamino)propyl)-6-azaspiro[2.5]octan-6-yl)-3,3,3-trifluoro-2-hydroxy-2-phenylpropan-1-one] | 18 | 34 | 6 | – | No IP | – | – | –
5 | CN(C)C(=O)c1c(F)cc(NCCC[C@H]2CC23CCN(C(=O)[C@](O)(c2ccccc2)C(F)(F)F)CC3)cc1F (single isomer, unassigned) [Example 6-5, 2,6-difluoro-N,N-dimethyl-4-(3-((S or R)-6-((R or S)-3,3,3-trifluoro-2-hydroxy-2-phenylpropanoyl)-6-azaspiro[2.5]octan-1-yl)propylamino)benzamide] | 24 | 49 | 19 | 2150 | – | – | – | –
6 | CN(C(=O)c1ccc(NCCC[C@@H]2CC23CCN(C(=O)[C@](O)(c2ccccc2)C(F)(F)F)CC3)cc1Cl)C1CC1 (single isomer, unassigned) [Example 6-6, 2-chloro-N-cyclopropyl-N-methyl-4-(3-((R or S)-6-((R or S)-3,3,3-trifluoro-2-hydroxy-2-phenylpropanoyl)-6-azaspiro[2.5]octan-1-yl)propylamino)benzamide] | 43 | 49 | 0 | – | No IP | – | – | –
7 | CN(C)C(=O)c1ccc(NCCC[C@H]2CC23CCN(C(=O)[C@@](O)(c2ccccc2)C(F)(F)C(F)(F)F)CC3)cc1Cl (single isomer, unassigned) [Example 6-7, 2-chloro-N,N-dimethyl-4-(3-((S or R)-6-((S or R)-3,3,4,4,4-pentafluoro-2-hydroxy-2-phenylbutanoyl)-6-azaspiro[2.5]octan-1-yl)propylamino)benzamide] | 91 | 68 | 9 | – | No IP | – | – | –
8 | CNC(=O)c1ccc(NCCC[C@@H]2CC23CCN(C(=O)[C@@](O)(C(C)C)C(F)(F)F)CC3)cc1Cl (single isomer, unassigned) [Example 6-8, 2-chloro-4-(3-((R or S)-6-((S or R)-2-hydroxy-3-methyl-2-(trifluoromethyl)butanoyl)-6-azaspiro[2.5]octan-1-yl)propylamino)-N-methylbenzamide] | 91 | 9 | 65 | 829 | – | – | – | –
9 | CNC(=O)c1ccc(NCCC[C@@H]2CC23CCN(C(=O)[C@](O)(C(C)C)C(F)(F)F)CC3)cc1Cl (single isomer, unassigned) [Example 6-9, 2-chloro-4-(3-((R or S)-6-((R or S)-2-hydroxy-3-methyl-2-(trifluoromethyl)butanoyl)-6-azaspiro[2.5]octan-1-yl)propylamino)-N-methylbenzamide] | 60 | 21 | 64 | 869 | – | – | – | –
10 | CN(C)C(=O)c1ccc(N(C)CCC[C@@H]2CC23CCN(C(=O)[C@](O)(c2ccccc2)C(F)(F)F)CC3)cc1Cl (single isomer, unassigned) [Example 7-1, 2-chloro-N,N-dimethyl-4-(methyl(3-((R or S)-6-((R or S)-3,3,3-trifluoro-2-hydroxy-2-phenylpropanoyl)-6-azaspiro[2.5]octan-1-yl)propyl)amino)benzamide] | 103 | 59 | 28 | 683 | – | – | – | –
11 | CN(C)C(=O)c1ccc(NCCC2CC23CCN(C(=O)C2(c4ccccc4)CCCC2)CC3)cc1Cl (single isomer, unassigned) [Example 8-1, (S or R)-2-chloro-N,N-dimethyl-4-(2-(6-(1-phenylcyclopentanecarbonyl)-6-azaspiro[2.5]octan-1-yl)ethylamino)benzamide] | – | – | 0 | – | No IP | 7 | 21 | –
12 | CN(C)C(=O)c1ccc(NC[C@H]2C[C@@H]2C2CCN(C(=O)[C@](O)(c3ccccc3)C(F)(F)F)CC2)cc1Cl (single isomer, unassigned) [Example 8-2, 2-chloro-N,N-dimethyl-4-(((1S,2R or 1R,2S)-2-(1-((R or S)-3,3,3-trifluoro-2-hydroxy-2-phenylpropanoyl)piperidin-4-yl)cyclopropyl)methylamino)benzamide] | 75 | 14 | 34 | 516 | – | – | – | –
13 | CN(C)C(=O)c1ccc(NC[C@H]2C[C@H]2C2CCN(C(=O)[C@](O)(c3ccccc3)C(F)(F)F)CC2)cc1Cl (single isomer, unassigned) [Example 8-3, 2-chloro-N,N-dimethyl-4-(((1S,2S or 1R,2R)-2-(1-((R or S)-3,3,3-trifluoro-2-hydroxy-2-phenylpropanoyl)piperidin-4-yl)cyclopropyl)methylamino)benzamide] | 50 | 4 | 35 | 421 | – | – | – | –
14 | CN(C)C(=O)c1ccc(N(C)CCC2CC23CCN(C(=O)C(C)(C)c2ccccc2)CC3)cc1Cl (single isomer, unassigned) [Example 9-1, (S or R)-2-chloro-N,N-dimethyl-4-(methyl(2-(6-(2-methyl-2-phenylpropanoyl)-6-azaspiro[2.5]octan-1-yl)ethyl)amino)benzamide] | 80 | 29 | 22 | 797 | – | – | – | –
15 | COc1cccc(C(O)(C(=O)N2CCC3(CCC(Nc4ccc(C(=O)N(C)C)c(Cl)c4)CC3)CC2)C(F)(F)F)c1 (single isomer, unassigned) [Example 10-1, 2-chloro-N,N-dimethyl-4-(3-((R or S)-3,3,3-trifluoro-2-hydroxy-2-(3-methoxyphenyl)propanoyl)-3-azaspiro[5.5]undecan-9-ylamino)benzamide] | 54 | 73 | 12 | – | No IP | – | – | –
16 | COc1cccc([C@@](O)(C(=O)N2CCC(CC3CC(Nc4ccc(C(=O)N(C)C)c(Cl)c4)C3)CC2)C(F)(F)F)c1 (single isomer, unassigned) [Example 11-1, 2-chloro-N,N-dimethyl-4-((1R,3s)-3-((1-((R or S)-3,3,3-trifluoro-2-hydroxy-2-(3-methoxyphenyl)propanoyl)piperidin-4-yl)methyl)cyclobutylamino)benzamide] | – | 8 | – | – | No IP | – | 85 | 12
17 | CN(C)C(=O)c1ccc(NCCC2CC3(CCN(C(=O)C(O)(c4ccccc4)C(F)(F)F)CC3)C2)cc1Cl (single isomer, unassigned) [Example 13-1, 2-chloro-N,N-dimethyl-4-(2-(7-((R or S)-3,3,3-trifluoro-2-hydroxy-2-phenylpropanoyl)-7-azaspiro[3.5]nonan-2-yl)ethylamino)benzamide] | 57 | 6 | 39 | 321 | – | – | – | –
